Calls of active or inactive are those of the source. The calls are words filed in the database; no cut-off is given here.
Tests used:
Assay type in all cases: functional, cell-based
HL-60 [1] = experiment: Antiproliferative activity against HL60 after 24 hrs; conditions: Homo sapiens, HL-60, 24 h
HL-60 [2] = experiment: Apoptotic activity in HL60 cells after 24 hrs; conditions: Homo sapiens, HL-60, 24 h
PMN = experiment: Cytotoxicity against human PMN cells at 100 uM

SMILES	IC50 (HL-60 [1]) [µM]	AC50 (HL-60 [2]) [µM]	Activity (PMN)
COc1ccc(-c2cc(=O)c3c(OC)c(OC)c(OC)c(OC)c3o2)cc1O	52.7	94.6	inactive
COc1ccc(-c2cc(=O)c3c(OC)c(OC)c(OC)c(OC)c3o2)cc1 [TANGERETIN]	> 100	> 100	inactive
COc1c(OC)c(OC)c2c(=O)cc(-c3ccc(O)c(O)c3)oc2c1OC	71.2	> 100	inactive
COc1ccc(-c2cc(=O)c3c(OC)c(OC)c(OC)cc3o2)cc1OC [SINENSETIN]	> 100	> 100	inactive
COc1cc(-c2cc(=O)c3c(O)c(OC)c(OC)c(OC)c3o2)cc(OC)c1OC [GARDENIN]	> 100	> 100	inactive
COc1ccc(-c2cc(=O)c3c(O)c(OC)c(OC)cc3o2)cc1OC	> 100	> 100	inactive
COc1cc(-c2cc(=O)c3c(OC)c(OC)c(OC)c(OC)c3o2)ccc1O	47.4	87.1	inactive
COc1ccc(-c2oc3c(OC)c(OC)c(OC)c(OC)c3c(=O)c2O)cc1OC [NATSUDAIDAI]	> 100	56.5	inactive
COc1ccc(-c2cc(=O)c3c(O)c(OC)c(OC)c(OC)c3o2)cc1 [GARDENIN B]	> 100	> 100	inactive

These reach a lower IC50 (HL-60 [1]). Values come first.

IC50 (HL-60 [1]) [µM]	SMILES	AC50 (HL-60 [2]) [µM]	Activity (PMN)
6.44	COc1ccc(-c2oc3cc(OC)c(OC)c(O)c3c(=O)c2OC)cc1OC [ARTEMETIN]	7.26	inactive
41.5	COc1ccc(-c2cc(=O)c3c(OC)c(OC)c(OC)c(OC)c3o2)cc1OC [NOBILETIN]	> 100	inactive
2.07	COc1ccc(-c2cc(=O)c3c(O)c(OC)c(OC)c(OC)c3o2)cc1OC [5-DEMETHYLNOBILETIN]	5.87	inactive
20.6	COc1ccc(-c2oc3cc(OC)c(OC)c(OC)c3c(=O)c2OC)cc1OC [HEXAMETHOXYFLAVONE]	92.1	inactive
13.3	COc1ccc(-c2oc3c(OC)c(OC)c(OC)c(OC)c3c(=O)c2OC)cc1OC [3,5,6,7,8,3',4'-HEPTAMETHOXYFLAVONE]	33.9	inactive
4.16	COc1ccc(-c2oc3c(OC)c(OC)c(OC)c(O)c3c(=O)c2OC)cc1OC	5.9	inactive

Reference: ChEMBL document CHEMBL1143042, “Isolation and syntheses of polymethoxyflavones and hydroxylated polymethoxyflavones as inhibitors of HL-60 cell lines” (Bioorg Med Chem, 2007)
